This experiment concerns Russian thistle (Salsola iberica). Description: Test F combination of compound 2 with bromoxynil, postemergence. As to conditions: 15 days, mean of three replicates, scale 0 to 100. In kind it is in vivo. The procedure:
Test F evaluated the effect of combining compound 2 with bromoxynil. The test species for this experiment was Russian thistle (Salsola iberica), which was prepared by sowing seeds into a blend of loam soil and sand. Test chemicals were formulated in a non-phytotoxic solvent mixture that included a surfactant and applied postemergence to plants ranging in height from 12 to 20 cm. […] Treatments consisted of Compound 2, bromoxynil, or their combination, using a spray volume of 457 L/ha. Each treatment was replicated three times. Treated plants and untreated controls were maintained in a greenhouse for 15 days, after which time all plants were visually evaluated and compared to the untreated controls. […] Colby's Equation was used to determine the herbicidal effects expected from the mixtures. Colby's Equation (Colby, S.

As for `N#Cc1cc(Br)c(O)c(Br)c1` [bromoxynil, reference compound], the “Russian Thistle Obsd. (observed effect)” value stood at 8 (Bromoxynil 70 g a.i./ha alone) and 13 (Bromoxynil 140 g a.i./ha alone).

The record behind these values is patent publication US8952024B2, “Herbicidal pyrimidone derivatives” (E I du Pont de Nemours and Company, priority 2009, dated 2015).
